Measured values published in patent EP4631931A1, “HDAC INHIBITOR AND USE THEREOF” (Wigen Biomedicine Technology (Shanghai) Co., Ltd., priority 2022, dated 2024).

Tests used:
[1] = Pharmacokinetic experiment in mice; type: in vivo, CD-1 female mice; conditions: female, CD-1, mouse, plasma; for Vd: read-out: Vdss
Protocol: CD-1 female mice aged 7 to 10 weeks were intravenously administered and orally administered at doses of 1 mg/kg and 10 mg/kg, respectively. The mice were fasted for at least 12 h before the administration and given food 4 h after the administration, and they were given ad libitum access to water during the experiment.
On the day of the experiment, animals in the intravenous group were given the corresponding compound by single injection via the tail vein at an administration volume of 10 mL/kg; and animals in the oral group were given the corresponding compound by single intragastric injection at an administration volume of 10 mL/kg. The animals were weighed before administration, and the administration volume was calculated according to the body weight. The sample collection time points were 0.083 h, 0.167 h, 0.5 h, 1 h, 2 h, 4 h, 8 h, and 24 h. About 200 µL of whole blood was collected through the orbital venous plexus at each time point and used to prepare plasma for concentration determination by high-performance liquid chromatography-tandem mass spectrometry (LC-MS/MS). The plasma concentrations were processed using a non-compartmental model of Winnolin pharmacokinetic software, and the pharmacokinetic parameters were calculated using a linear-log trapezoidal method. Table 13. Results of in vivo pharmacokinetic evaluation of compounds of the present disclosure

Jurkat cell = assay: Inhibition of Jurkat cell proliferation (CTG, intracellular ATP); type: cell-based; conditions: Homo sapiens, 72 h, compared to DMSO group, read-out: Inhibitory activity against Jurkat cell proliferation (IC50)
Protocol: (§1) Jurkat or 293T cells were seeded into a 96-well plate at 3000 cells/well. After overnight adherence culture, the serially diluted compound in DMSO was added. After 72 h, the intracellular ATP level was determined by CTG. The IC50 for the inhibition of cell proliferation by the compounds was calculated compared to the DMSO group. Table 8. Inhibitory activity of compounds of the present disclosure against Jurkat/293T cell proliferation (IC50, µM)

293T cell = assay: Inhibition of 293T cell proliferation (CTG, intracellular ATP); type: cell-based; conditions: Homo sapiens, HEK-293T, 72 h, compared to DMSO group, read-out: Inhibitory activity against 293T cell proliferation (IC50)
Protocol: as §1

[2] = Stability in liver microsomes; type: in vitro ADME; conditions: 1 µM compound, NADPH, 37 °C
Protocol: After the 1 µM compound was incubated with 0.5 mg/mL of human or mouse liver microsomes and an NADPH regeneration system at 37 °C for different times, respectively, LC-MS-MS was used to analyze the remaining amount of the compound and calculate T1/2. Table 12. Evaluation results of stability of compounds of the present disclosure in human and mouse liver microsomes

[3] = tested on: Mouse colon cancer CT-26 cells; assay: In vivo efficacy in CT-26 model; set-up: species or system BALB/c mice; conditions: small molecules 15mg/kg PO QD, PD-1 1mg/kg IV QW, BDO 2mg/kg IP QW, 21 days
Protocol: (§2) Female BALB/c mice (aged 6 weeks, 18-22 g) were provided by Vital River Laboratory Animal Technology Co., Ltd. (China) and used one week after quarantine and acclimation. All animals were kept in a room at 23±2 °C with a relative humidity of 50±5%, artificial lighting was provided from 08:00 to 20:00 every day, and the air was exchanged 13-18 times per hour. Mouse colon cancer CT-26 cells were cultured conventionally in 1640 medium containing 10% fetal bovine serum in an incubator at 37 °C with 5% CO2. After being subcultured, the cells were collected when they reached the desired amount. The BALB/c mice were subcutaneously injected with 2 × 10^5 CT-26 cells on the right side to form tumors. After the tumors grew to about 100 mm^3, the animals were randomly grouped for administration. Tumor volumes were measured with a caliper on day 3, day 7, day 10, day 14, day 17, and day 21 after the administration. […] The toxicity of the compounds was evaluated according to the body weight and state of the mice.
Table 16. In vivo efficacy of some of the compounds of the present disclosure in CT-26 model

OVCAR 3 cells = assay: NK cell-mediated tumor cell killing (NK92 cells, GFP count); type: cell-based; conditions: Homo sapiens, 72 h compound, 1-4 h co-culture, compared to DMSO group, read-out: EC50 in promoting the NK92 cell-mediated OVCAR 3 cell death
Protocol: OVCAR 3 cells […] expressing GFP were seeded into a 96-well plate at 4000 cells/well. After overnight adherence culture, the serially diluted compounds were added, and the plate was incubated for another 72 h. After the two types of cells were mixed and cultured for another 1-4 h, NK92 cells were removed by washing with PBS, and adherent GFP-positive tumor cells were counted. The EC50 of the compounds in promoting the NK92 cell-mediated OVCAR 3 cell death was calculated compared to the DMSO group. Table 11. NK cell-mediated tumor cell killing by compounds of the present disclosure

HeLa cells = assay: Intracellular acetyl lysine / H3K 27 acetyl lysine level by ELISA; type: cell-based; conditions: 24 h of treatment
Protocol: HeLa cells were seeded into a 96-well plate at 20000 cells/well. After overnight adherence culture, the serially diluted compound was added. After 24 h of treatment, intracellular levels of acetyl lysine and H3K 27 acetyl lysine were quantified by ELISA. Table 9. Effect of compound of the present disclosure on levels of acetyl lysine and H3K 27 acetyl lysine

[4] = tested on: Mouse colon cancer MC38 cells; assay: In vivo efficacy in MC-38 model; set-up: species or system C57BL6N mice; conditions: small molecules 15mg/kg PO QD, PD-1 1mg/kg IV QW, BDO 2mg/kg IP QW, 21 days
Protocol: as §2, with “C57BL6N” for “BALB/c”, “MC38” for “CT-26”, “10^6 MC38” for “10^5 CT-26”
Table 15. In vivo efficacy of some of the compounds of the present disclosure in MC-38 model

[5] = Injection (1 mg/kg), intravenous
[6] = Human liver microsomes 0.5 mg/mL
[7] = Mouse liver microsomes 0.5 mg/mL

Row | SMILES | AUC(0-t) [1, 5] | clearance [1, 5] | half-life [1, 5] | Vd [1, 5] | AUC(0-t) ([1]; Oral administration (10 mg/kg)) | Cmax ([1]; Oral administration (10 mg/kg)) | Tmax ([1]; Oral administration (10 mg/kg)) | bioavailability ([1]; Oral administration (10 mg/kg)) | half-life ([1]; Oral administration (10 mg/kg)) | IC50 (Jurkat cell) | IC50 (293T cell) | CLint scaled at 1 µM [2, 6] | Clliver [2, 6] | half-life at 1 µM [2, 6] | CLint scaled at 1 µM [2, 7] | Clliver [2, 7] | half-life at 1 µM [2, 7] | other results
1 | [2H]/C(=C\C(=O)NCc1ccc(C(=O)Nc2ccc(F)cc2N)cc1)c1cccnc1 [Compound 8] | 903 ng·h/mL | 36.9 mL/min/kg | 1.01 h | 1.21 L/kg | 1430 ng·h/mL | 824 ng/mL | 0.08 h | 29.6% | 1.87 h | 1580 nM | 4010 nM | 18.4 mL/min/kg | 9.73 mL/min/kg | 1.58 h | 285 mL/min/kg | 68.41 mL/min/kg | 0.319 h | 
2 | [2H]c1ncccc1/C=C/C(=O)NCc1ccc(C(=O)Nc2ccc(F)cc2N)cc1 [Compound 9] | 1000 ng·h/mL | 16.6 mL/min/kg | 1.48 h | 0.44 L/kg | 1050 ng·h/mL | 1640 ng/mL | 0.17 h | 10.5% | 1.21 h | 1080 nM | 5180 nM | 4.59 mL/min/kg | 3.75 mL/min/kg | 6.32 h | 118 mL/min/kg | 50.99 mL/min/kg | 0.773 h | 
3 | [2H]c1cc(NC(=O)c2ccc(CNC(=O)/C=C/c3cccnc3)cc2)c(N)cc1F [Compound 1, (E)-N-(2-amino-4-fluorophenyl-5-d)-4-((3-(pyridin-3-yl)acrylamido)methyl)benzamide] | 401 ng·h/mL | 41.5 mL/min/kg | 2.41 h | 2.19 L/kg | 1890 ng·h/mL | 3450 ng/mL | 0.08 h | 45.3% | 2.76 h | 860 nM | > 10000 nM |  |  |  |  |  |  | Change in body weight [3]: +17.6%; TGI(%) ([3]; 6 mice per group): 35.7%; EC50 (OVCAR 3 cells): 43.9 nM; Acetyl lysine Maximum (%) (HeLa cells): 430%; Acetyl lysine Minimum effective concentration (HeLa cells): 16 nM; H3K 27 Acetyl lysine Maximum (%) (HeLa cells): 360%; H3K 27 Acetyl lysine Minimum effective concentration (HeLa cells): 80 nM; Change in body weight [4]: +17.6%; TGI(%) ([4]; 6 mice per group): 35.7%
4 | [2H]c1cc(CNC(=O)/C=C/c2cccnc2)ccc1C(=O)Nc1ccc(F)cc1N [Compound 4] | 602 ng·h/mL | 27.7 mL/min/kg | 3.05 h | 1.32 L/kg | 1710 ng·h/mL | 1740 ng/mL | 0.08 h | 28.5% | 3.9 h | 1700 nM | 3260 nM | 19.5 mL/min/kg | 10.03 mL/min/kg | 1.49 h | 244 mL/min/kg | 65.74 mL/min/kg | 0.373 h | 
